ChEMBL document CHEMBL1201862, “PubChem BioAssay data set” (2004)
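These data come from cells grown in 96-well plates and exposed to compound for 48 hours at five concentrations. GI50 is the concentration that inhibits growth by half.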 Calls of active or inactive are those of the source. Cut-off read from the data, not from the text of the source: active = GI50 up to about 1.1 µM and inactive = higher.

Key:
Test in all cases: NCI-60 cell line screen, 48 h
NCI-H460 = test system: NCI-H460
KM12 = test system: KM12
SR = test system: SR
NCI-H226 = test system: NCI-H226
RXF 393 = test system: RXF 393
T47D = test system: T47D
ACHN = test system: ACHN
UO-31 = test system: UO-31
COLO 205 = test system: COLO 205
Malme-3M = test system: Malme-3M
A498 = test system: A498
MDA-N = test system: MDA-N
IGROV-1 = test system: IGROV-1
MCF7 = test system: MCF7
SF-268 = test system: SF-268
NCI-H23 = test system: NCI-H23
BT-549 = test system: BT-549
HL-60 = test system: HL-60
MDA-MB-231 = test system: MDA-MB-231

| SMILES | GI50 (NCI-H460) | GI50 (KM12) | GI50 (SR) | GI50 (NCI-H226) | GI50 (RXF 393) | GI50 (T47D) | GI50 (ACHN) | GI50 (UO-31) | GI50 (COLO 205) | GI50 (Malme-3M) | GI50 (A498) | GI50 (MDA-N) | GI50 (IGROV-1) | GI50 (MCF7) | GI50 (SF-268) | GI50 (NCI-H23) | GI50 (BT-549) | GI50 (HL-60) | GI50 (MDA-MB-231) |
| --- | --- | --- | --- | --- | --- | --- | --- | --- | --- | --- | --- | --- | --- | --- | --- | --- | --- | --- | --- |
| Cc1ccc(S(=O)(=O)N/N=C2\CCCCCCCCCCC2CN(C)C)cc1 (centres undefined) | 12.4 µM (inactive) | 17.9 µM (inactive) | 16.9 µM (inactive) | 15.7 µM (inactive) | 11.6 µM (inactive) | 13.4 µM (inactive) | 20.1 µM (inactive) | 9.04 µM (inactive) | 17.4 µM (inactive) | 16.6 µM (inactive) | 17.7 µM (inactive) | 18.5 µM (inactive) | 16 µM (inactive) | 17 µM (inactive) | 21.3 µM (inactive) | 23 µM (inactive) | 17.7 µM (inactive) | 19.4 µM (inactive) | 18.9 µM (inactive) |
| FC(F)(F)c1cc(N(C2c3ccccc3C=Cc3ccccc32)P(Cl)Cl)cc(C(F)(F)F)c1 | – | 21.4 µM (inactive) | 16 µM (inactive) | 19.1 µM (inactive) | 13.8 µM (inactive) | 17.9 µM (inactive) | 17.5 µM (inactive) | 17.6 µM (inactive) | 22.2 µM (inactive) | 17.5 µM (inactive) | 26.9 µM (inactive) | 22 µM (inactive) | 26.2 µM (inactive) | 20.7 µM (inactive) | 17.2 µM (inactive) | 18 µM (inactive) | 0.706 µM (active) | 20 µM (inactive) | 18.6 µM (inactive) |
| C=CCc1cc(C=C(C#N)C#N)cc(OC)c1O | > 100 µM (inactive) | > 100 µM (inactive) | 42.7 µM (inactive) | > 100 µM (inactive) | 24.8 µM (inactive) | 38.9 µM (inactive) | > 100 µM (inactive) | > 100 µM (inactive) | 52.6 µM (inactive) | > 100 µM (inactive) | > 100 µM (inactive) | > 100 µM (inactive) | > 100 µM (inactive) | 53.1 µM (inactive) | – | 79.8 µM (inactive) | 90.4 µM (inactive) | 28.2 µM (inactive) | > 100 µM (inactive) |
| C=CCN1C(=O)CNC1=S | > 100 µM (inactive) | > 100 µM (inactive) | > 100 µM (inactive) | > 100 µM (inactive) | > 100 µM (inactive) | > 100 µM (inactive) | > 100 µM (inactive) | > 100 µM (inactive) | > 100 µM (inactive) | > 100 µM (inactive) | > 100 µM (inactive) | > 100 µM (inactive) | > 100 µM (inactive) | > 100 µM (inactive) | > 100 µM (inactive) | > 100 µM (inactive) | > 100 µM (inactive) | 23.7 µM (inactive) | > 100 µM (inactive) |
| CC(=O)N(C(C)=O)n1c(Cc2ccc(Cl)cc2)nn(C(C)=O)c1=O | > 100 µM (inactive) | > 100 µM (inactive) | > 100 µM (inactive) | > 100 µM (inactive) | > 100 µM (inactive) | > 100 µM (inactive) | > 100 µM (inactive) | > 100 µM (inactive) | > 100 µM (inactive) | > 100 µM (inactive) | > 100 µM (inactive) | > 100 µM (inactive) | > 100 µM (inactive) | > 100 µM (inactive) | > 100 µM (inactive) | > 100 µM (inactive) | > 100 µM (inactive) | > 100 µM (inactive) | > 100 µM (inactive) |
| Cn1c2ccccc2c2cc(N3CCCC3)c3c(c21)C(=O)N(c1ccccc1)C3=O | > 100 µM (inactive) | > 100 µM (inactive) | > 100 µM (inactive) | 47 µM (inactive) | 32.5 µM (inactive) | 62.1 µM (inactive) | > 100 µM (inactive) | > 100 µM (inactive) | > 100 µM (inactive) | > 100 µM (inactive) | > 100 µM (inactive) | > 100 µM (inactive) | > 100 µM (inactive) | 24.3 µM (inactive) | 88.1 µM (inactive) | > 100 µM (inactive) | > 100 µM (inactive) | > 100 µM (inactive) | 66.4 µM (inactive) |
| CCON=C1C(C)(C)C(C)(C)C(C)(C)C1(C)C | > 100 µM (inactive) | > 100 µM (inactive) | > 100 µM (inactive) | > 100 µM (inactive) | > 100 µM (inactive) | > 100 µM (inactive) | > 100 µM (inactive) | – | > 100 µM (inactive) | > 100 µM (inactive) | > 100 µM (inactive) | > 100 µM (inactive) | > 100 µM (inactive) | > 100 µM (inactive) | > 100 µM (inactive) | > 100 µM (inactive) | > 100 µM (inactive) | > 100 µM (inactive) | > 100 µM (inactive) |
| Cn1cnc([N+](=O)[O-])c1[Se]c1nc(N)nc2c1ncn2C1OC(CO)C(O)C1O (centres undefined) | > 100 µM (inactive) | > 100 µM (inactive) | > 100 µM (inactive) | > 100 µM (inactive) | > 100 µM (inactive) | > 100 µM (inactive) | > 100 µM (inactive) | > 100 µM (inactive) | > 100 µM (inactive) | > 100 µM (inactive) | > 100 µM (inactive) | > 100 µM (inactive) | > 100 µM (inactive) | > 100 µM (inactive) | > 100 µM (inactive) | > 100 µM (inactive) | > 100 µM (inactive) | > 100 µM (inactive) | > 100 µM (inactive) |
| CN(C)Cc1cc(C(F)(F)F)ccc1C(O)(c1ccccc1)c1ccccc1 | 14.6 µM (inactive) | 16.9 µM (inactive) | 12.6 µM (inactive) | 15.1 µM (inactive) | 11.8 µM (inactive) | 18.2 µM (inactive) | 16.3 µM (inactive) | 12.1 µM (inactive) | 8.05 µM (inactive) | 15.2 µM (inactive) | 11.7 µM (inactive) | 14.4 µM (inactive) | 15.9 µM (inactive) | 14.3 µM (inactive) | 15.3 µM (inactive) | 26.2 µM (inactive) | > 10 µM (inactive) | 7.76 µM (inactive) | 11.9 µM (inactive) |
| Nc1nc2c(c(=O)[nH]1)N=C(COP(=O)(O)OP(=O)(O)O)CN2 | – | > 100 µM (inactive) | > 100 µM (inactive) | > 100 µM (inactive) | > 100 µM (inactive) | > 100 µM (inactive) | > 100 µM (inactive) | > 100 µM (inactive) | > 100 µM (inactive) | > 100 µM (inactive) | > 100 µM (inactive) | > 100 µM (inactive) | > 100 µM (inactive) | > 100 µM (inactive) | > 100 µM (inactive) | > 100 µM (inactive) | > 100 µM (inactive) | > 100 µM (inactive) | > 100 µM (inactive) |
| COC(=O)[C@@H]1C=C[C@H](OC2OC(COC(C)=O)C(OC(C)=O)C(OC(C)=O)C2OC(C)=O)n2c(=O)n(-c3ccccc3)c(=O)n21 (some centres undefined) | 14 µM (inactive) | 5.5 µM (inactive) | 1.82 µM (inactive) | 12.2 µM (inactive) | 1.95 µM (inactive) | 2.57 µM (inactive) | 1.72 µM (inactive) | 2.24 µM (inactive) | 1.85 µM (inactive) | 2.01 µM (inactive) | 7.46 µM (inactive) | 2.57 µM (inactive) | 3.87 µM (inactive) | 2.35 µM (inactive) | 2.51 µM (inactive) | 5.3 µM (inactive) | 2.29 µM (inactive) | 1.1 µM (active) | 2.7 µM (inactive) |
| COc1ccc(SCc2cc(OC)c(OC)c(OC)c2)cc1OC | > 79.6 µM (inactive) | 37.5 µM (inactive) | 53.8 µM (inactive) | 51.6 µM (inactive) | > 95.5 µM (inactive) | 13.4 µM (inactive) | 51.8 µM (inactive) | 27.9 µM (inactive) | 50.4 µM (inactive) | 55.2 µM (inactive) | 40.9 µM (inactive) | 24.5 µM (inactive) | 80.4 µM (inactive) | 28.8 µM (inactive) | > 100 µM (inactive) | 27.5 µM (inactive) | 30 µM (inactive) | 30.8 µM (inactive) | 57 µM (inactive) |
| Cc1nc(SCC(=O)Nc2ccc(Cl)cc2)c2sc(=S)n(-c3ccccc3)c2n1 | > 10 µM (inactive) | > 10 µM (inactive) | 6.28 µM (inactive) | > 10 µM (inactive) | > 10 µM (inactive) | > 10 µM (inactive) | > 10 µM (inactive) | – | > 10 µM (inactive) | > 10 µM (inactive) | > 10 µM (inactive) | > 10 µM (inactive) | > 10 µM (inactive) | > 10 µM (inactive) | > 10 µM (inactive) | > 10 µM (inactive) | > 10 µM (inactive) | > 10 µM (inactive) | > 10 µM (inactive) |
| O=C1c2cc([N+](=O)[O-])sc2C(=O)c2c([N+](=O)[O-])csc21 | 1.55 µM (inactive) | 1.24 µM (inactive) | 0.0479 µM (active) | 1.52 µM (inactive) | 0.706 µM (active) | 0.69 µM (active) | 0.324 µM (active) | 1.87 µM (inactive) | 0.925 µM (active) | 0.274 µM (active) | 1.92 µM (inactive) | 0.189 µM (active) | 0.4 µM (active) | 0.365 µM (active) | 0.708 µM (active) | 0.711 µM (active) | 0.802 µM (active) | 0.0382 µM (active) | 0.551 µM (active) |
| NCC1OC(OC2C(N)CC(N)C(O)C2OC2OC(CO)C(O)C2O)C(N)C(O)C1O (centres undefined) | > 50 µM (inactive) | > 50 µM (inactive) | > 50 µM (inactive) | > 100 µM (inactive) | > 50 µM (inactive) | > 50 µM (inactive) | > 50 µM (inactive) | > 100 µM (inactive) | – | > 100 µM (inactive) | > 50 µM (inactive) | > 50 µM (inactive) | > 50 µM (inactive) | > 100 µM (inactive) | > 100 µM (inactive) | > 100 µM (inactive) | > 100 µM (inactive) | > 100 µM (inactive) | > 50 µM (inactive) |
